Data published in PMC9747527 (Biochemistry and Biophysics Reports, 2022).
“And” between values parts separate entries of the source, which are not always exact repeats. Equal entries are not always repeated.

What was measured:
[1] = cited from earlier work
[2] = Biodistribution of DRV administered via intravenous; assay type: in vivo; conditions: Balb/c mice; for DRV accumulation cumulatively in the brain / DRV uptake cumulative in liver / DRV uptake cumulative in plasma / DRV accumulation cumulatively for all time points in plasma / DRV accumulation cumulatively for all time points in the brain / DRV concentration in liver (cumulative): cumulative 1, 3, 6, 12 h, mean ± S.E.M.; for concentration at 1 h: both, Balb/c, mouse, brain, other: intranasal (IN), DRV concentration in brain (Mean)

Compound | Brain to plasma ratio, IN compared to IV administration [1] | Increase of DRV accumulation in the brain, IN compared to IV delivery ([2]; 2.5 mg/kg, 1 h, p ≤ 0.05) [fold] | Increase of DRV accumulation in the brain, IN compared to IV delivery ([2]; 2.5 mg/kg, 3 h, p ≤ 0.05) [fold] | DRV accumulation cumulatively in the brain ([2]; 2.5 mg/kg, IN) | DRV uptake cumulative in liver ([2]; 2.5 mg/kg, IN) [ng/g] | DRV uptake cumulative in plasma ([2]; 2.5 mg/kg, IN) [ng/g] | DRV accumulation cumulatively in the brain ([2]; 2.5 mg/kg, IV) [ng/g] | DRV uptake cumulative in liver ([2]; 2.5 mg/kg, IV) [ng/g] | DRV uptake cumulative in plasma ([2]; 2.5 mg/kg, IV) [ng/g] | Lung DRV concentration, IN compared to IV ([2]; 2.5 mg/kg, individual or cumulative time points) | Increase of DRV accumulation in the brain, IN compared to IV delivery ([2]; 25 mg/kg, 1 h, p ≤ 0.001) [fold] | DRV accumulation cumulatively for all time points in plasma ([2]; 25 mg/kg, IN) [ng/g] | DRV accumulation cumulatively for all time points in the brain ([2]; 25 mg/kg, IN) | DRV concentration in liver (cumulative) ([2]; 25 mg/kg, IN) [ng/g] | DRV accumulation cumulatively for all time points in plasma ([2]; 25 mg/kg, IV) [ng/g] | DRV accumulation cumulatively for all time points in the brain ([2]; 25 mg/kg, IV) [ng/g] | DRV concentration in liver (cumulative) ([2]; 25 mg/kg, IV) [ng/g] | concentration at 1 h ([2]; 2.5 mg/kg, 2.5 mg/kg, IN, 1 h) [ng/g] | concentration at 1 h ([2]; 25 mg/kg, 25 mg/kg, IN, 1 h) [ng/g]
CN(C)CCCN=C(N)c1ccc(C(N)=NCCCN(C)C)cc1 [DB213] | significantly high tissue distribution in the brain to plasma ratio |  |  |  |  |  |  |  |  |  |  |  |  |  |  |  |  |  | 
CC(C)CN(C[C@@H](O)[C@H](Cc1ccccc1)NC(=O)O[C@H]1CO[C@H]2OCC[C@H]21)S(=O)(=O)c1ccc(N)cc1 [DRV, Darunavir] |  | ~3 | ~2 | 12.08 ± 2.91 ng/g and ~12 ng/g | 29.27 ± 4.17 | 19.91 ± 12.65 | 6.91 ± 1.69 | 118.39 ± 28.13 | 81.37 ± 22.04 | did not significantly increase | ~2 | 320.56 ± 40.04 | 19.74 ± 1.80 ng/g and ~20 ng/g | 833.83 ± 242.4 | 899.12 ± 136.93 | 12.84 ± 2.88 | 1085.18 ± 255.0 | ~5 | ~12
